Reference: ChEMBL document CHEMBL3714755, “Pyridinyl amides as P2X3 and P2X2/3 inhibitors” (2014)
Calls of active or inactive are those of the source. No rule for the calls is given here.

target: P2X2/P2X3 heterotrimeric receptor (Homo sapiens) (UniProt Q9UBL9+P56373); test: Antagonist activity against human P2X2/3 receptor expressed in CHOK1 cells assessed as inhibition of alpha,beta-meATP-induced calcium response incubated for 20 mins by Fluo-3AM dye based FLIPR assay; format: functional, cell-based; details: CHO-K1

`COCC(C)NC(=O)c1cc(NC(=O)c2ccc(C)cc2C)cc(-c2ccc(C)cc2)c1` (configuration not stated) was tested. Which inhibition did it give?
Its inhibition is “Active”.

With `Cc1ccc(-c2cc(C(=O)NCc3cnccn3)cc(N(C)C(=O)C(C)C)c2)c(F)c1` as the compound, how does the inhibition read?
Its inhibition is “Active”.

For `CCN(C(=O)CC(C)C)c1cc(C(=O)NC(C)c2cnccn2)cc(-c2ccc(C)cc2)c1` (configuration not stated), which inhibition is on record?
Its inhibition is “Active”.

Which inhibition does the source give for `Cc1ccc(-c2cc(C(=O)NC(C)c3cnccn3)cc(N(C(=O)C(C)C)c3ccncn3)c2)cc1` (configuration not stated) here?
The inhibition was “Active”.

How did the inhibition turn out when `CCN(C(=O)COC)c1cc(C(=O)NC(C)c2cnccn2)cc(-c2ccc(C)cc2)c1` (configuration not stated) was run?
Its inhibition is “Active”.

How did the inhibition turn out when `CCN(C(=O)OCC(C)C)c1cc(C(=O)NC(C)c2cnccn2)cc(-c2ccc(C)cc2)c1` (configuration not stated) was run?
Its inhibition is “Active”.

`COCC(C)NC(=O)c1cc(NC(=O)c2cccs2)cc(-c2ccc(C)cc2)c1` (configuration not stated) was tested. Which inhibition did it give?
The inhibition was “Active”.

Which inhibition does the source give for `COCC(C)NC(=O)c1cc(NC(=O)C2CCCCC2)cc(-c2ccc(C)cc2)c1` (configuration not stated) here?
The inhibition was “Active”.

How did the inhibition turn out when `Cc1ccc(-c2cc(C(=O)NC(C)c3cnccn3)cc(N(C)C(=O)C(C)(C)C)c2)cc1` (configuration not stated) was run?
The inhibition was “Active”.

With `COCC(C)NC(=O)c1cc(NC(=O)c2cc(C)cs2)cc(-c2ccc(C)cc2)c1` (configuration not stated) as the compound, how does the inhibition read?
The inhibition was “Active”.

For `Cc1ccc(-c2cc(C(=O)N[C@@H](C)CO)cc(N(C)C(=O)C(C)C)c2)c(F)c1`, which inhibition is on record?
The inhibition was “Active”.

How did the inhibition turn out when `Cc1ccc(-c2cc(C(=O)NCc3cnc(C)cn3)cc(N(C)C(=O)C3(C)COC3)c2)nc1` was run?
The inhibition was “Active”.

For `COC[C@@H](C)NC(=O)c1cc(-c2ccc(Cl)cc2Cl)cc(N(C)C(=O)C(C)C)c1`, which inhibition is on record?
Its inhibition is “Active”.

For `CCC(=O)N(c1cc(C(=O)NC(C)c2cnccn2)cc(-c2ccc(C)cc2)c1)c1ccncn1` (configuration not stated), which inhibition is on record?
Its inhibition is “Active”.

For `COCC(C)NC(=O)c1cc(NC(=O)c2ccc(C)s2)cc(-c2ccc(C)cc2)c1` (configuration not stated), which inhibition is on record?
The inhibition was “Active”.

For `COCC(C)NC(=O)c1cc(NC(=O)c2c(-c3ccccc3)noc2C)cc(-c2ccc(C)cc2)c1` (configuration not stated), which inhibition is on record?
Its inhibition is “Active”.

`Cc1ccc(-c2cc(C(=O)N[C@@H](C)CO)cc(N(C)C(=O)C3CCCC3)c2)cc1` was tested. Which inhibition did it give?
The inhibition was “Active”.

Which inhibition does the source give for `Cc1ccc(-c2cc(C(=O)NC(C)c3cnccn3)cc(N(C)C(=O)C(C)C)c2)cc1` (configuration not stated) here?
Its inhibition is “Active”.

`COCC(C)NC(=O)c1cc(NC(=O)c2cc(C)nn2C)cc(-c2ccc(C)cc2)c1` (configuration not stated) was tested. Which inhibition did it give?
The inhibition was “Active”.

Which inhibition does the source give for `CCN(C(=O)c1cccnc1)c1cc(C(=O)NC(C)c2cnccn2)cc(-c2ccc(C)cc2)c1` (configuration not stated) here?
Its inhibition is “Active”.

`Cc1ccc(-c2cc(C(=O)NCc3cnccn3)cc(N(C)C(=O)C(C)C)c2)cc1` was tested. Which inhibition did it give?
Its inhibition is “Active”.

With `CCN(C(=O)OC)c1cc(C(=O)NC(C)c2cnccn2)cc(-c2ccc(C)cc2)c1` (configuration not stated) as the compound, how does the inhibition read?
Its inhibition is “Active”.

With `CC(=O)N(C)c1cc(C(=O)NC(C)c2cnccn2)cc(-c2ccc(C)cc2)c1` (configuration not stated) as the compound, how does the inhibition read?
The inhibition was “Active”.

How did the inhibition turn out when `Cc1ccc(-c2cc(C(=O)N[C@@H](C)CO)cc(N(C)C(=O)C(C)C)c2)cc1` was run?
The inhibition was “Active”.

`COCC(C)NC(=O)c1cc(NC(=O)c2cc(C)on2)cc(-c2ccc(C)cc2)c1` (configuration not stated) was tested. Which inhibition did it give?
The inhibition was “Active”.

How did the inhibition turn out when `CC(C)C(=O)N(C)c1cc(C(=O)NC(C)c2cnccn2)cc(-c2ccc(F)cc2F)c1` (configuration not stated) was run?
The inhibition was “Active”.

Which inhibition does the source give for `COCC(C)NC(=O)c1cc(NC(=O)c2nc(C)oc2C)cc(-c2ccc(C)cc2)c1` (configuration not stated) here?
Its inhibition is “Active”.

`Cc1ccc(-c2cc(C(=O)NC(C)c3cnccn3)cc(N(C)C(=O)C3CCOCC3)c2)cc1` (configuration not stated) was tested. Which inhibition did it give?
Its inhibition is “Active”.

With `CC(C)C(=O)N(C)c1cc(C(=O)NCc2cnccn2)cc(-c2ccc(Cl)cn2)c1` as the compound, how does the inhibition read?
Its inhibition is “Active”.

`CCN(C(=O)c1ccncc1)c1cc(C(=O)NC(C)COC)cc(-c2ccc(C)cc2)c1` (configuration not stated) was tested. Which inhibition did it give?
Its inhibition is “Active”.

With `CCC(=O)N(C)c1cc(C(=O)NC(C)COC)cc(-c2ccc(C)cc2)c1` (configuration not stated) as the compound, how does the inhibition read?
The inhibition was “Active”.

With `Cc1ccc(-c2cc(C(=O)N[C@@H](C)CO)cc(N(C)C(=O)C(C)C)c2)c(Cl)c1` as the compound, how does the inhibition read?
The inhibition was “Active”.

How did the inhibition turn out when `Cc1ccc(-c2cc(C(=O)NCc3cnccn3)cc(N(C)C(=O)C(C)C)c2)c(Cl)c1` was run?
Its inhibition is “Active”.

For `COCC(C)NC(=O)c1cc(NC(=O)c2ccccc2)cc(-c2ccc(C)cc2)c1` (configuration not stated), which inhibition is on record?
Its inhibition is “Active”.

Which inhibition does the source give for `CCN(C(=O)CC(C)C)c1cc(C(=O)NC(C)CO)cc(-c2ccc(C)cc2)c1` (configuration not stated) here?
Its inhibition is “Active”.

`Cc1ccc(-c2cc(C(=O)NC(C)c3cnccn3)cc(N(C)C(=O)c3snnc3C)c2)cc1` (configuration not stated) was tested. Which inhibition did it give?
The inhibition was “Active”.

`CCN(C(=O)C1CCOCC1)c1cc(C(=O)NC(C)c2cnccn2)cc(-c2ccc(C)cc2)c1` (configuration not stated) was tested. Which inhibition did it give?
Its inhibition is “Active”.

How did the inhibition turn out when `CCC(=O)N(C)c1cc(C(=O)N[C@H](C)CN2CCOCC2)cc(-c2ccc(C)cc2)c1` was run?
The inhibition was “Active”.

`COCC(=O)N(C)c1cc(C(=O)NC(C)c2cnccn2)cc(-c2ccc(C)cc2)c1` (configuration not stated) was tested. Which inhibition did it give?
Its inhibition is “Active”.

How did the inhibition turn out when `CC(C)C(=O)N(C)c1cc(C(=O)NC(C)c2cnccn2)cc(-c2ccc(Cl)cn2)c1` (configuration not stated) was run?
The inhibition was “Active”.

Which inhibition does the source give for `CCNC(=O)N(C)c1cc(C(=O)NC(C)c2cnccn2)cc(-c2ccc(Cl)cc2)c1` (configuration not stated) here?
Its inhibition is “Active”.

For `Cc1ccc(-c2cc(C(=O)NCc3cnc(C)cn3)cc(N(C)C(=O)C(C)C)c2)nc1`, which inhibition is on record?
Its inhibition is “Active”.

`CCN(C(=O)OC(C)C)c1cc(C(=O)NC(C)c2cnccn2)cc(-c2ccc(C)cc2)c1` (configuration not stated) was tested. Which inhibition did it give?
Its inhibition is “Active”.

For `COC[C@@H](C)NC(=O)c1cc(-c2ccc(F)cc2F)cc(N(C)C(=O)C(C)C)c1`, which inhibition is on record?
Its inhibition is “Active”.

For `Cc1ccc(-c2cc(C(=O)NC(C)c3cnccn3)cc(N(C)C(=O)C(C)C)c2)c(Cl)c1` (configuration not stated), which inhibition is on record?
The inhibition was “Active”.

Which inhibition does the source give for `CCC(CC)C(=O)N(C)c1cc(C(=O)NC(C)c2cnccn2)cc(-c2ccc(C)cc2)c1` (configuration not stated) here?
The inhibition was “Active”.

`CCN(c1cc(C(=O)NC(C)c2cnccn2)cc(-c2ccc(C)cc2)c1)c1cnccn1` (configuration not stated) was tested. Which inhibition did it give?
The inhibition was “Active”.

`CC(NC(=O)c1cc(-c2ccc(Cl)cc2)cc(N(C)C(=O)N2CCOCC2)c1)c1cnccn1` (configuration not stated) was tested. Which inhibition did it give?
Its inhibition is “Active”.

How did the inhibition turn out when `CCC(C)(C)C(=O)N(C)c1cc(C(=O)NC(C)c2cnccn2)cc(-c2ccc(C)cc2)c1` (configuration not stated) was run?
The inhibition was “Active”.

How did the inhibition turn out when `COCC(C)NC(=O)c1cc(NC(=O)c2cscc2OC)cc(-c2ccc(C)cc2)c1` (configuration not stated) was run?
Its inhibition is “Active”.

Which inhibition does the source give for `CC(NC(=O)c1cc(-c2ccc(Cl)cc2)cc(N(C)C(=O)N(C)C)c1)c1cnccn1` (configuration not stated) here?
Its inhibition is “Active”.

How did the inhibition turn out when `Cc1ccc(-c2cc(NC(=O)C(C)C)cc(C(=O)NC(C)c3cnccn3)c2)cc1` (configuration not stated) was run?
Its inhibition is “Active”.

For `CC(=O)N1CCC(C(=O)N(C)c2cc(C(=O)NC(C)c3cnccn3)cc(-c3ccc(C)cc3)c2)CC1` (configuration not stated), which inhibition is on record?
Its inhibition is “Active”.

With `COCC(C)NC(=O)c1cc(NC(=O)c2sccc2C)cc(-c2ccc(C)cc2)c1` (configuration not stated) as the compound, how does the inhibition read?
The inhibition was “Active”.

How did the inhibition turn out when `COCC(C)NC(=O)c1cc(NC(=O)c2cscn2)cc(-c2ccc(C)cc2)c1` (configuration not stated) was run?
Its inhibition is “Active”.

For `CC(=O)N(c1cc(C(=O)NC(C)c2cnccn2)cc(-c2ccc(C)cc2)c1)c1ccncn1` (configuration not stated), which inhibition is on record?
Its inhibition is “Active”.

How did the inhibition turn out when `CC(C)C(=O)N(C)c1cc(C(=O)NC(C)c2cnccn2)cc(-c2ccc(Cl)cc2Cl)c1` (configuration not stated) was run?
The inhibition was “Active”.

For `CCN(C(C)=O)c1cc(C(=O)NC(C)c2cnccn2)cc(-c2ccc(C)cc2)c1` (configuration not stated), which inhibition is on record?
The inhibition was “Active”.

For `CCN(C(=O)C(C)C)c1cc(C(=O)N[C@@H](C)CO)cc(-c2ccc(C)cc2)c1`, which inhibition is on record?
The inhibition was “Active”.

How did the inhibition turn out when `Cc1ccc(-c2cc(C(=O)NC(C)c3cnccn3)cc(N(C)C(=O)C3CCCCC3)c2)cc1` (configuration not stated) was run?
The inhibition was “Active”.

For `CCC(C)C(=O)N(C)c1cc(C(=O)N[C@@H](C)CO)cc(-c2ccc(C)cc2)c1` (some centres not stated), which inhibition is on record?
Its inhibition is “Active”.

With `Cc1ccc(-c2cc(C(=O)NC(C)c3cnccn3)cc(N(C)C(=O)C3CCCC3)c2)cc1` (configuration not stated) as the compound, how does the inhibition read?
The inhibition was “Active”.

Which inhibition does the source give for `COCC(C)NC(=O)c1cc(NC(=O)c2ccccn2)cc(-c2ccc(C)cc2)c1` (configuration not stated) here?
Its inhibition is “Active”.

Which inhibition does the source give for `CCC(C)C(=O)N(C)c1cc(C(=O)NC(C)c2cnccn2)cc(-c2ccc(C)cc2)c1` (configuration not stated) here?
Its inhibition is “Active”.

`Cc1ccc(-c2cc(C(=O)NC(C)c3cnccn3)cc(N(C)C(=O)C(C)C)c2)c(F)c1` (configuration not stated) was tested. Which inhibition did it give?
Its inhibition is “Active”.

For `Cc1ccc(-c2cc(C(=O)N[C@@H](C)CO)cc(N(C)C(=O)C(C)C)c2)nc1`, which inhibition is on record?
Its inhibition is “Active”.

For `COCC(C)NC(=O)c1cc(NC(=O)c2ccc(F)cc2Cl)cc(-c2ccc(C)cc2)c1` (configuration not stated), which inhibition is on record?
The inhibition was “Active”.

Which inhibition does the source give for `CC(C)C(=O)N(C)c1cc(C(=O)N[C@@H](C)CO)cc(-c2ccc(Cl)cn2)c1` here?
The inhibition was “Active”.

`Cc1ccc(-c2cc(C(=O)NC(C)c3cnccn3)cc(N(C)C(=O)C(C)C)c2)nc1` (configuration not stated) was tested. Which inhibition did it give?
Its inhibition is “Active”.

With `CCN(C(=O)C(C)C)c1cc(C(=O)NC(C)c2cnccn2)cc(-c2ccc(C)cc2)c1` (configuration not stated) as the compound, how does the inhibition read?
Its inhibition is “Active”.

How did the inhibition turn out when `COCC(C)NC(=O)c1cc(NC(=O)c2ccc(C(F)(F)F)cc2Cl)cc(-c2ccc(C)cc2)c1` (configuration not stated) was run?
Its inhibition is “Active”.

`COCC(C)NC(=O)c1cc(NC(=O)c2ccco2)cc(-c2ccc(C)cc2)c1` (configuration not stated) was tested. Which inhibition did it give?
The inhibition was “Active”.
